Patent publication US20060276340A1, “HERBICIDE COMPOSITION COMPRISING PYRIBAMBENZ-PROPYL OR PYRIBAMBENZ-ISOPROPYL” (Zhejiang Chem-Tech Group Co., Ltd., priority 2003, published 2006)
“Also recorded” adds a separate entry of the source.

Experiments:
Assay type in all cases: in vivo
Beckmannia syzigachne [1] = assay: greenhouse pot test, Tables 1-2; settings: BECSY 2 leaves
Method: (§1) The test soil is a formulated sandy loam soil. 9.5 centimeter diameter pots are used for herbicidal activity test.
(§2) The soil in the pot for the pre-emergence test was sprayed one day after planting. The preparation liquid for the treatment prepared by mixing individual single-herbicides was diluted with water to the desired dosage.
(§3) The pots for post-emergence treatment are placed into a greenhouse and incubated for 7 to 9 days, and then subjected to leave treatment by spraying. The preparation liquid for the treatment prepared by mixing individual single-herbicides was diluted with water to the desired dosage.
(§4) The treated pots stood for one day, then were placed in a greenhouse and watered regularly. The herbicidal activities of the compositions were evaluated by visual examination after incubating for 14 to 21 days.
(§5) The herbicidal activities of the compositions were evaluated by plant symptoms such as stunting, deformity, chlorosis, and whitening. 0 represents that the compositions have no herbicidal effect or have safety to crops. 100 represents that the weeds or crops were completely killed.

Poa annua [2] = assay: greenhouse pot test, Tables 1-2; settings: POAAN 3 leaves
Method: as §1, §2, §3, §4, §5

Digitrria sanguinalis = assay: greenhouse pot test, Tables 1-2; settings: DIGSA 3 leaves
Method: as §1, §2, §3, §4, §5

Polypogon fugax [3] = assay: greenhouse pot test, Tables 1-2; settings: POLFU 3-4 leaves
Method: as §1, §2, §3, §4, §5

Alopecurus aequalis [4] = assay: greenhouse pot test, Tables 1-2
Method: as §1, §2, §3, §4, §5

Beckmannia syzigachne [5] = assay: greenhouse pot test, post-emergence early stage treatment; settings: BECSY 2˜3 leaves
Method: as §1, §3, §4, §5

Poa annua [6] = assay: as above
Method: as §1, §3, §4, §5

Cerastium arvense [7] = assay: as above
Method: as §1, §3, §4, §5

Alopercurus japonicus [8] = assay: as above; settings: ALOJA
Method: as §1, §3, §4, §5

Galium aparine [9] = assay: as above
Method: as §1, §3, §4, §5

Cerastium arvense [10] = assay: greenhouse pot test, pre-emergence treatment; settings: CERAR
Method: as §1, §2, §4, §5

Galium aparine [11] = assay: greenhouse pot test, pre-emergence treatment; settings: GALAP
Method: as §1, §2, §4, §5

Polypogon fugax [12] = assay: greenhouse pot test, pre-emergence treatment; settings: POLFU
Method: as §1, §2, §4, §5

Alopecurus aequalis [13] = assay: greenhouse pot test, pre-emergence treatment; settings: ALOAE
Method: as §1, §2, §4, §5

Poa annua [14] = assay: greenhouse pot test, post-emergence treatment; settings: POAAN
Method: as §1, §3, §4, §5

Alopercurus japonicus [15] = assay: greenhouse pot test, post-emergence treatment; settings: ALOJA
Method: as §1, §3, §4, §5

Galium aparine [16] = assay: greenhouse pot test, post-emergence treatment
Method: as §1, §3, §4, §5

Veronica didyma = assay: greenhouse pot test, post-emergence treatment; settings: VERDI
Method: as §1, §3, §4, §5

weeds in rape field = assay: weed control in rape field, descriptive statements; settings: for weed control: Alopecurus aequalis, Alopecurus japonicus, Stellaria aquatica, Stallaria media and Atellaria alsine; for effectiveness of control: second important weeds in rape field: Poa annua, sclerochloa kengiana, Beckmannia syzigachne, Polypogon fugax, broadleaf Cardlamine hirsuta, Galium aparine, Lapsana apogonoides, Hemistepta lyrata
rape = assay: safety to crops; settings: for selectivity between rape and weeds: in vivo; for safety to crops: rape / objective crops
Method: The herbicidal activities of the compositions were evaluated by plant symptoms such as stunting, deformity, chlorosis, and whitening. 0 represents that the compositions have no herbicidal effect or have safety to crops. 100 represents that the weeds or crops were completely killed. [table]

Cerastium arvense [17] = assay: greenhouse pot test, post-emergence treatment; settings: CERAR 6 leaves
Method: as §1, §3, §4, §5

Polypogon fugax [18] = assay: greenhouse pot test, post-emergence treatment; settings: POLFU 4˜4.5 leaves
Method: as §1, §3, §4, §5

Alopecurus aequalis [19] = assay: greenhouse pot test, post-emergence treatment; settings: ALOAE 3 leaves
Method: as §1, §3, §4, §5

In the case of `CCCOC(=O)c1ccc(NCc2ccccc2Oc2nc(OC)cc(OC)n2)cc1` [Pyribambenz-propyl, propyl 4-({2-[(4,6-dimethoxypyrimidin-2-yl)oxy]benzyl}amino)benzoate], the “visual evaluation of weed effects” value (Beckmannia syzigachne [1]; 30 g/ha) is reported as 0%, the “visual evaluation of weed effects” value (Beckmannia syzigachne [1]; 45 g/ha) is reported as 0% and the “visual evaluation of weed effects” value (Poa annua [2]; 30 g/ha) is reported as 20%. The “visual evaluation of weed effects” value (Poa annua [2]; 45 g/ha) was 30%, the “visual evaluation of weed effects” value (Digitrria sanguinalis; 30 g/ha) was 60% and the “visual evaluation of weed effects” value (Digitrria sanguinalis; 45 g/ha) was 80%. For the same compound, the “visual evaluation of weed effects” value (Polypogon fugax [3]; 30 g/ha) was 70%, the “visual evaluation of weed effects” value (Polypogon fugax [3]; 45 g/ha) was 80% and the “visual evaluation of weed effects” value (Alopecurus aequalis [4]; ALOAE 0 leaf, 30 g/ha) was 90%. The “visual evaluation of weed effects” value (Alopecurus aequalis [4]; ALOAE 0 leaf, 45 g/ha) was 90%, the “visual evaluation of weed effects” value (Alopecurus aequalis [4]; ALOAE 3 leaves, 30 g/ha) was 100% and the “visual evaluation of weed effects” value (Alopecurus aequalis [4]; ALOAE 3 leaves, 45 g/ha) was 100%. The “visual evaluation of weed effects” value (Beckmannia syzigachne [5]; 30 g/ha) was 50%, the “visual evaluation of weed effects” value (Beckmannia syzigachne [5]; 45 g/ha) was 70% and the “visual evaluation of weed effects” value (Poa annua [6]; POAAN 2˜3 leaves, 30 g/ha) was 85%. The “visual evaluation of weed effects” value (Poa annua [6]; POAAN 2˜3 leaves, 45 g/ha) was 95%, the “visual evaluation of weed effects” value (Poa annua [6]; POAAN, 30 g/ha) was 95% and the “visual evaluation of weed effects” value (Poa annua [6]; POAAN, 45 g/ha) was 98%. For the same compound, the “visual evaluation of weed effects” value (Cerastium arvense [7]; CERAR 3˜4 leaves, 30 g/ha) was 40%, the “visual evaluation of weed effects” value (Cerastium arvense [7]; CERAR 3˜4 leaves, 45 g/ha) was 50% and the “visual evaluation of weed effects” value (Cerastium arvense [7]; CERAR, 30 g/ha) was 80%. The “visual evaluation of weed effects” value (Cerastium arvense [7]; CERAR, 45 g/ha) was 85%, the “visual evaluation of weed effects” value (Alopercurus japonicus [8]; 30 g/ha) was 90% and the “visual evaluation of weed effects” value (Alopercurus japonicus [8]; 45 g/ha) was 90%. The “visual evaluation of weed effects” value (Galium aparine [9]; GALAP 7˜8 leaves, 30 g/ha) was 0%, the “visual evaluation of weed effects” value (Galium aparine [9]; GALAP 7˜8 leaves, 45 g/ha) was 30% and the “visual evaluation of weed effects” value (Galium aparine [9]; GALAP, 30 g/ha) was 20%. For the same compound, the “visual evaluation of weed effects” value (Galium aparine [9]; GALAP, 45 g/ha) was 20%, the “visual evaluation of weed effects” value (Cerastium arvense [10]; 30 g/ha) was 70% and the “visual evaluation of weed effects” value (Cerastium arvense [10]; 45 g/ha) was 80%. For the same compound, the “visual evaluation of weed effects” value (Galium aparine [11]; 30 g/ha) was 0%, the “visual evaluation of weed effects” value (Galium aparine [11]; 45 g/ha) was 40% and the “visual evaluation of weed effects” value (Polypogon fugax [12]; 30 g/ha) was 60%. For the same compound, the “visual evaluation of weed effects” value (Polypogon fugax [12]; 45 g/ha) was 80%, the “visual evaluation of weed effects” value (Alopecurus aequalis [13]; 30 g/ha) was 95% and the “visual evaluation of weed effects” value (Alopecurus aequalis [13]; 45 g/ha) was 95%. The “visual evaluation of weed effects” value (Poa annua [14]; 30 g/ha) was 85%, the “visual evaluation of weed effects” value (Poa annua [14]; 45 g/ha) was 90% and the “visual evaluation of weed effects” value (Alopercurus japonicus [15]; 30 g/ha) was 85%. The “visual evaluation of weed effects” value (Alopercurus japonicus [15]; 45 g/ha) was 90%, the “visual evaluation of weed effects” value (Galium aparine [16]; GALAP, 30 g/ha) was 20% and the “visual evaluation of weed effects” value (Galium aparine [16]; GALAP, 45 g/ha) was 20%. For the same compound, the “visual evaluation of weed effects” value (Veronica didyma; 30 g/ha) was 20%, the “visual evaluation of weed effects” value (Veronica didyma; 45 g/ha) was 30% and the weed control (weeds in rape field) was “high-effectively control; also recorded: effective weed control”. The effectiveness of control (weeds in rape field) was “moderate”, the “selectivity between rape and weeds” value (rape) was “good selectivity” and the safety to crops (rape) was “safety toward rape”.

For `COc1cc(OC)nc(Oc2ccccc2CNc2ccc(C(=O)OC(C)C)cc2)n1` [Pyribambenz-isopropyl, iso-propyl 4-({2-[(4,6-dimethoxypyrimidin-2-yl)oxy]benzyl}amino)benzoate], the “visual evaluation of weed effects” value (Beckmannia syzigachne [1]; 30 g/ha) was 30%, the “visual evaluation of weed effects” value (Beckmannia syzigachne [1]; 45 g/ha) was 30% and the “visual evaluation of weed effects” value (Poa annua [2]; 30 g/ha) was 60%. The “visual evaluation of weed effects” value (Poa annua [2]; 45 g/ha) was 90%, the “visual evaluation of weed effects” value (Digitrria sanguinalis; 30 g/ha) was 60% and the “visual evaluation of weed effects” value (Digitrria sanguinalis; 45 g/ha) was 80%. The “visual evaluation of weed effects” value (Polypogon fugax [3]; 30 g/ha) was 80%, the “visual evaluation of weed effects” value (Polypogon fugax [3]; 45 g/ha) was 80% and the “visual evaluation of weed effects” value (Alopecurus aequalis [4]; ALOAE 0 leaf, 30 g/ha) was 90%. For the same compound, the “visual evaluation of weed effects” value (Alopecurus aequalis [4]; ALOAE 0 leaf, 45 g/ha) was 90%, the “visual evaluation of weed effects” value (Alopecurus aequalis [4]; ALOAE 3 leaves, 30 g/ha) was 100% and the “visual evaluation of weed effects” value (Alopecurus aequalis [4]; ALOAE 3 leaves, 45 g/ha) was 100%. For the same compound, the “visual evaluation of weed effects” value (Beckmannia syzigachne [5]; 30 g/ha) was 50%, the “visual evaluation of weed effects” value (Beckmannia syzigachne [5]; 45 g/ha) was 70% and the “visual evaluation of weed effects” value (Poa annua [6]; POAAN 2˜3 leaves, 30 g/ha) was 80%. The “visual evaluation of weed effects” value (Poa annua [6]; POAAN 2˜3 leaves, 45 g/ha) was 95%, the “visual evaluation of weed effects” value (Poa annua [6]; POAAN, 30 g/ha) was 95% and the “visual evaluation of weed effects” value (Poa annua [6]; POAAN, 45 g/ha) was 98%. For the same compound, the “visual evaluation of weed effects” value (Cerastium arvense [7]; CERAR 3˜4 leaves, 30 g/ha) was 40%, the “visual evaluation of weed effects” value (Cerastium arvense [7]; CERAR 3˜4 leaves, 45 g/ha) was 60% and the “visual evaluation of weed effects” value (Cerastium arvense [7]; CERAR, 30 g/ha) was 80%. For the same compound, the “visual evaluation of weed effects” value (Cerastium arvense [7]; CERAR, 45 g/ha) was 90%, the “visual evaluation of weed effects” value (Alopercurus japonicus [8]; 30 g/ha) was 90% and the “visual evaluation of weed effects” value (Alopercurus japonicus [8]; 45 g/ha) was 90%. For the same compound, the “visual evaluation of weed effects” value (Galium aparine [9]; GALAP 7˜8 leaves, 30 g/ha) was 0%, the “visual evaluation of weed effects” value (Galium aparine [9]; GALAP 7˜8 leaves, 45 g/ha) was 10% and the “visual evaluation of weed effects” value (Galium aparine [9]; GALAP, 30 g/ha) was 30%. For the same compound, the “visual evaluation of weed effects” value (Galium aparine [9]; GALAP, 45 g/ha) was 50%, the “visual evaluation of weed effects” value (Poa annua [14]; 30 g/ha) was 85% and the “visual evaluation of weed effects” value (Poa annua [14]; 45 g/ha) was 90%. For the same compound, the “visual evaluation of weed effects” value (Cerastium arvense [17]; 30 g/ha) was 50%, the “visual evaluation of weed effects” value (Cerastium arvense [17]; 45 g/ha) was 60% and the “visual evaluation of weed effects” value (Alopercurus japonicus [15]; 30 g/ha) was 85%. The “visual evaluation of weed effects” value (Alopercurus japonicus [15]; 45 g/ha) was 90%, the “visual evaluation of weed effects” value (Galium aparine [16]; GALAP 7˜8 leaves, 30 g/ha) was 0% and the “visual evaluation of weed effects” value (Galium aparine [16]; GALAP 7˜8 leaves, 45 g/ha) was 0%. For the same compound, the “visual evaluation of weed effects” value (Galium aparine [16]; GALAP, 30 g/ha) was 20%, the “visual evaluation of weed effects” value (Galium aparine [16]; GALAP, 45 g/ha) was 20% and the “visual evaluation of weed effects” value (Veronica didyma; 30 g/ha) was 20%. The “visual evaluation of weed effects” value (Veronica didyma; 45 g/ha) was 30%, the “visual evaluation of weed effects” value (Polypogon fugax [18]; 30 g/ha) was 50% and the “visual evaluation of weed effects” value (Polypogon fugax [18]; 45 g/ha) was 60%. The “visual evaluation of weed effects” value (Alopecurus aequalis [19]; 30 g/ha) was 80%, the “visual evaluation of weed effects” value (Alopecurus aequalis [19]; 45 g/ha) was 90% and the weed control (weeds in rape field) was “high-effectively control; also recorded: effective weed control”. The effectiveness of control (weeds in rape field) was “moderate”, the “selectivity between rape and weeds” value (rape) was “good selectivity” and the safety to crops (rape) was “safety toward rape”.
